Test results as given in patent publication US20170234881A1, “METHODS OF DIAGNOSING AND TREATING CANCER” (INSERM ( INSTITUT NATIONAL DE LA SANTÉ ET DE LA RECHERCHE …, priority 2014, published 2017).

Columns and labels:
MDA-MB231 cells = test: Growth of MDA-MB231 tumors implanted s.c. into mice; assay type: in vivo; conditions: human MDA-MB231 tumors, OCDO 16 μg/kg s.c.
Protocol: FIG. 2. OCDO is a tumor promoter in vitro and in vivo and its inhibition contributes to the anti-tumor effects of Tam and DDA. (A, B) Histograms representing the effect of OCDO or 17β-estrogen (E2) on MCF7 (A) and TS/A (B) cell proliferation after 24 h treatment using a colorimetric immunoassay measuring BrDU incorporation in DNA (C, D) Histogram representing the effect of OCDO on MCF7 (C) and TS/A (D) cell invasion. Data are the mean of three separate experiments (±s.e.m), *P<0.05, **P<0.01, ***P<0.001 (Student's t-test). (E, F) Mice were implanted s.c. with MCF7 (E) or TS/A (F) cells and animals (8 per group) were treated s.c. every day starting on the day of implantation with either the solvent vehicle or OCDO (16 μg/kg for MCF7 or 50 μg/kg for TS/A). Animals were monitored for tumour growth twice a week. […] (G) Mean (±s.e.m) of Ki67 positive cell number determined from IHC staining of MCF7 tumor sections from (E), n=8, *P<0.05 (Student's t-test) using HistoQuant, Pannoramic Viewer (3DHistech). […]
(§1) Exponentially growing MCF7, ShMCF7, E0771, MDA-MB231, MDA-MB468 and TS/A cells were collected, washed twice in PBS and resuspended in PBS. […] Animals were examined daily, and body weights were measured twice per week. In all the experiments, the tumor volume was determined by direct measurement with a caliper and was calculated using the formula (width^2×length)/2. […]

shHSD2 MCF7 cells [1] = test: Invasiveness of shHSD2 MCF7 cells (matrigel-coated filters); assay type: cell-based, human; conditions: OCDO 5 μM for 72 h
Protocol: (§2) FIG. 7. Knock-down of 11βHSD2 decreases cell proliferation, invasion and survival in MCF7 cells as well as tumor growth and OCDO reverses these effects. shC or shHSD2 MCF7 cells were analyzed as followed: (A) The proliferation of sh-C or shHSD2 cells treated or not with OCDO 5 μM 24 h was measured using quantification of DNA BrDU incorporation as described in FIG. 2A. (B) The proliferation of sh-C or shHSD2 cells treated or not with increasing concentration of cortisone for 24 h was measured as in (A). (C) The invasiveness of sh-C or shHSD2 cells treated or not with OCDO 5 μM for 72 h was assayed using matrigel-coated filters. (D) the formation of colony by sh-C or shHSD2 cells treated or not with OCDO 1 μM was quantified as described in FIG. 6F. […] Animals were monitored for tumor growth twice a week. […] (F) Mean (±s.e.m) of Ki67 positive cell number determined from IHC staining of shC or shHSD2 MCF7 tumor sections from (E), n=8, *P<0.05 (Student's t-test) using HistoQuant, Pannoramic Viewer (3DHistech).
Invasion assays were carried out using Bio-Coat migration chambers (BD Falcon) with 8 μm filters previously coated with matrigel. […] The entire membranes were mounted on glass slides, and were counted under a microscope. […]

shHSD2 MCF7 cells [2] = test: Clonogenic assay of shHSD2 MCF7 cells; assay type: cell-based, human; conditions: OCDO 1 μM
Protocol: as §2
Cells, MCF7-sh11bHSD2 (5×10^3), MCF7-shC (5×10^3) or TSA (3×10^3) were seeded in duplicate in […] diameter dish. […] At day 10, colonies were fixed with 3.7% PFA, stained with an aqueous crystal violet solution (0.05%) and the number of colonies was counted.

ShC tumors = test: Ki67 staining of shC MCF7 tumors xenografted in mice; assay type: in vivo; conditions: OCDO treatment
Protocol: as §2, §1

CC(C)CCC[C@@H](C)[C@H]1CC[C@H]2[C@@H]3CC(=O)[C@@]4(O)C[C@@H](O)CC[C@]4(C)[C@H]3CC[C@]12C [OCDO, 6-oxo-cholestan-3β,5α-diol]
tumor growth (MDA-MB231 cells): stimulates the growth
effect on the inhibition of cell invasion mediated by 11βHSD2 knock-down (shHSD2 MCF7 cells [1]): reversed the inhibition of cell invasion
effect on the inhibition of cell survival (colony formation) mediated by 11βHSD2 knock-down (shHSD2 MCF7 cells [2]): reversed the inhibition
cell proliferation by KI67 staining of tumors (ShC tumors): increased
